Test results: PubChem BioAssay AID1919016 (Molecular Pharmacology Branch, DTP, NCI, 2023)

Test system: NCI-H196 complex spheroid growth, percent test/control
Experiment: Anticancer human tumor NCI-H196 cell line growth inhibition [AhR];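 also: seven days of drug exposure starting three days after plating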;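 as to viability, T/C: 100% = DMSO vehicle control wells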
Settings: for IC50: curve of first compound; for viability, T/C: stronger effect = lower value
Summary of the method: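 Spheroids combined tumor cells with HUVEC endothelial cells and human MSCs as stroma. AhR antagonists were paired with standard or investigational drugs, each dosed in half-log steps down from near clinical Cmax, or from 10 microM where Cmax was unknown.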

[1] = second compound 0.1 µM, first compound 0.0316 µM
[2] = second compound 0.1 µM, first compound 0.1 µM
[3] = second compound 0.316 µM, first compound 0.0316 µM
[4] = second compound 0.316 µM, first compound 0.1 µM
[5] = second compound 1 µM, first compound 0.0316 µM
[6] = second compound 1 µM, first compound 0.1 µM
[7] = second compound 3.16 µM, first compound 0.0316 µM
[8] = second compound 3.16 µM, first compound 0.1 µM
[9] = second compound 10 µM, first compound 0.0316 µM
[10] = second compound 10 µM, first compound 0.1 µM
[11] = second compound 0.1 µM, first compound 0.316 µM
[12] = second compound 0.1 µM, first compound 1 µM
[13] = second compound 0.1 µM, first compound 3.16 µM
[14] = second compound 0.1 µM, first compound 10 µM
[15] = second compound 0.316 µM, first compound 0.316 µM
[16] = second compound 0.316 µM, first compound 1 µM
[17] = second compound 0.316 µM, first compound 3.16 µM
[18] = second compound 0.316 µM, first compound 10 µM
[19] = second compound 1 µM, first compound 0.316 µM
[20] = second compound 1 µM, first compound 1 µM
[21] = second compound 1 µM, first compound 3.16 µM
[22] = second compound 1 µM, first compound 10 µM
[23] = second compound 3.16 µM, first compound 0.316 µM
[24] = second compound 3.16 µM, first compound 1 µM
[25] = second compound 3.16 µM, first compound 3.16 µM
[26] = second compound 3.16 µM, first compound 10 µM
[27] = second compound 10 µM, first compound 0.316 µM
[28] = second compound 10 µM, first compound 1 µM
[29] = second compound 10 µM, first compound 3.16 µM
[30] = second compound 10 µM, first compound 10 µM

| SMILES | IC50 (second compound 0.1 µM) [nM] | IC50 (second compound 0.316 µM) [nM] | IC50 (second compound 1 µM) [nM] | IC50 (second compound 3.16 µM) [nM] | IC50 (second compound 10 µM) [nM] | viability, T/C [1] [%] | viability, T/C [2] [%] | viability, T/C [3] [%] | viability, T/C [4] [%] | viability, T/C [5] [%] | viability, T/C [6] [%] | viability, T/C [7] [%] | viability, T/C [8] [%] | viability, T/C [9] [%] | viability, T/C [10] [%] | viability, T/C [11] [%] | viability, T/C [12] [%] | viability, T/C [13] [%] | viability, T/C [14] [%] | viability, T/C [15] [%] | also measured |
| --- | --- | --- | --- | --- | --- | --- | --- | --- | --- | --- | --- | --- | --- | --- | --- | --- | --- | --- | --- | --- | --- |
| CC[C@@]1(O)C(=O)OCc2c1cc1n(c2=O)Cc2cc3c(CN(C)C)c(O)ccc3nc2-1 + Cc1cncc(-c2nc(NCCc3c[nH]c4ccccc34)c3ncn(C(C)C)c3n2)c1 | > 100 | > 100 | > 100 | > 100 | > 100 | 96.8 | 105 | 94.7 | 99.2 | 101 | 89.8 | 104 | 95.2 | 83.9 | 77.2 |  |  |  |  |  | viability, T/C (second compound 0.1 µM, first compound 0.000316 µM): 105%; viability, T/C (second compound 0.1 µM, first compound 0.001 µM): 95.5%; viability, T/C (second compound 0.1 µM, first compound 0.00316 µM): 83%; viability, T/C (second compound 0.1 µM, first compound 0.01 µM): 88.8%; viability, T/C (second compound 0.316 µM, first compound 0.000316 µM): 101%; viability, T/C (second compound 0.316 µM, first compound 0.001 µM): 100%; viability, T/C (second compound 0.316 µM, first compound 0.00316 µM): 98.8%; viability, T/C (second compound 0.316 µM, first compound 0.01 µM): 95.5%; viability, T/C (second compound 1 µM, first compound 0.000316 µM): 108%; viability, T/C (second compound 1 µM, first compound 0.001 µM): 103%; viability, T/C (second compound 1 µM, first compound 0.00316 µM): 91%; viability, T/C (second compound 1 µM, first compound 0.01 µM): 92.3%; viability, T/C (second compound 3.16 µM, first compound 0.000316 µM): 104%; viability, T/C (second compound 3.16 µM, first compound 0.001 µM): 101%; viability, T/C (second compound 3.16 µM, first compound 0.00316 µM): 96.7%; viability, T/C (second compound 3.16 µM, first compound 0.01 µM): 88.8%; viability, T/C (second compound 10 µM, first compound 0.000316 µM): 82.8%; viability, T/C (second compound 10 µM, first compound 0.001 µM): 97.7%; viability, T/C (second compound 10 µM, first compound 0.00316 µM): 95.7%; viability, T/C (second compound 10 µM, first compound 0.01 µM): 74.1% |
| COc1cc(C2c3cc4c(cc3C(OC3OC5COC(C)OC5C(O)C3O)C3COC(=O)C23)OCO4)cc(OC)c1O (stereo not given) + Cc1cncc(-c2nc(NCCc3c[nH]c4ccccc34)c3ncn(C(C)C)c3n2)c1 | > 10000 | > 10000 | > 10000 | > 10000 | > 10000 | 104 | 103 | 104 | 109 | 99.7 | 112 | 108 | 114 | 89.1 | 92 | 98.9 | 99.8 | 103 | 96.7 | 101 | viability, T/C [16]: 105%; viability, T/C [17]: 112%; viability, T/C [18]: 89.4%; viability, T/C [19]: 104%; viability, T/C [20]: 109%; viability, T/C [21]: 103%; viability, T/C [22]: 77.8%; viability, T/C [23]: 112%; viability, T/C [24]: 105%; viability, T/C [25]: 100%; viability, T/C [26]: 81.9%; viability, T/C [27]: 101%; viability, T/C [28]: 84.3%; viability, T/C [29]: 77.4%; viability, T/C [30]: 62% |
| Nc1ccn(C2OC(CO)C(O)C2(F)F)c(=O)n1 (stereo not given) + Cc1cncc(-c2nc(NCCc3c[nH]c4ccccc34)c3ncn(C(C)C)c3n2)c1 | 377 | 620 | 811 | 289 | > 10000 | 71.4 | 60.1 | 83.1 | 62.8 | 71.5 | 60.7 | 81.3 | 70.6 | 76.6 | 88.1 | 50.4 | 48.8 | 43.4 | 52 | 51.4 | viability, T/C [16]: 47.3%; viability, T/C [17]: 51.3%; viability, T/C [18]: 43.8%; viability, T/C [19]: 49.5%; viability, T/C [20]: 54.3%; viability, T/C [21]: 45.5%; viability, T/C [22]: 46.7%; viability, T/C [23]: 48.3%; viability, T/C [24]: 45.2%; viability, T/C [25]: 47.8%; viability, T/C [26]: 45.3%; viability, T/C [27]: 78%; viability, T/C [28]: 53.1%; viability, T/C [29]: 54.8%; viability, T/C [30]: 57.1% |
